The values below come from patent publication US9365605B2, “Cyclic nucleotide analogs” (priority 2010, dated 2016).

For this assay, the system named is Huh-7 cells containing the self-replicating, subgenomic HCV replicon with a stable luciferase (LUC) reporter. Nature of the assay: HCV replicon assay (luciferase reporter, Bright-Glo). The assay is classed as cell-based. The method, then: Huh-7 cells containing the self-replicating, subgenomic HCV replicon with a stable luciferase (LUC) reporter were cultured in Dulbecco's modified Eagle's medium (DMEM) containing 2 mM L-glutamine and supplemented with 10% heat-inactivated fetal bovine serum (FBS), 1% penicillin-streptomyocin, 1% nonessential amino acids, and 0.5 mg/mL G418.
Determination of 50% inhibitory concentration (EC50) of compounds in HCV replicon cells were performed by the following procedure. On the first day, 5,000 HCV replicon cells were plated per well in a 96-well plate. On the following day, test compounds were solubilized in 100% DMSO to 100× the desired final testing concentration. Each compound was then serially diluted (1:3) up to 9 different concentrations. Compounds in 100% DMSO are reduced to 10% DMSO by diluting 1:10 in cell culture media. The compounds were diluted to 10% DMSO with cell culture media, which were used to dose the HCV replicon cells in 96-well format. The final DMSO concentration was 1%. The HCV replicon cells were incubated at 37° C. for 72 hours. At 72 hours, cells were processed when the cells are still subconfluent. Compounds that reduce the LUC signal are determined by Bright-Glo Luciferase Assay (Promega, Madison, Wis.). % Inhibition was determined for each compound concentration in relation to the control cells (untreated HCV replicon) to calculate the EC50.
Compounds of Formula (I) are active in the replicon assay. The antiviral activity of exemplary compounds is shown in Table 5, where ‘A’ indicates an EC50<1 μM, ‘B’ indicates an EC50≧1 μM and <10 μM, and ‘C’ indicates an EC50≧10 μM and <100 μM.

Like-named read-outs stand apart in the source and are kept apart here.

`COc1nc(N)nc2c1ncn2[C@@H]1O[C@@H]2COP(=S)(OC)O[C@H]2[C@@]1(C)O` (some centres unmarked) [Compound 1a, (Rp/Sp) 2′-C-methyl-6-O-methyl-guanosine-3′,5′-cyclic-O-methyl phosphorothioate]: for the setting “Hepatitis C virus, Huh-7, 72 h”, the EC50 (as a rule, the concentration needed to bring the measured effect to its halfway point) is less than 1 µM.
For `COP1(=O)O[C@H]2[C@@H](O)[C@H](n3cnc4c(N)ncnc43)O[C@@H]2[C@H](C)O1` (some centres unmarked) [Compound 8a], the EC50 (Hepatitis C virus, HCV replicon cells (Huh-7), 72 hours incubation, LUC signal, read-out: EC50) was in the range of 10 to 100 µM.
Molecule `COP1(=S)OC[C@H]2O[C@@H](n3ccc(=O)[nH]c3=O)[C@](C)(O)[C@@H]2O1` (some centres unmarked) [Compound 10a, 1-(7-Hydroxy-2-methoxy-7-methyl-2-thioxo-tetrahydro-2l5-furo[3,2-d][1,3,2]dioxaphosphinin-6-yl)-1H-pyrimidine-2,4-dione] showed an EC50 (Hepatitis C virus, Huh-7, 72 h) of 10 to 100 µM.
Where the note is “Hepatitis C virus, Huh-7, 72 h”, `CC(C)OP1(=S)OC[C@H]2O[C@@H](n3ccc(=O)[nH]c3=O)[C@](C)(O)[C@@H]2O1` (some centres unmarked) [Compound 11a, 1-(7-Hydroxy-2-isopropoxy-7-methyl-2-thioxo-tetrahydro-2l5-furo[3,2-d][1,3,2]dioxaphosphinin-6-yl)-1H-pyrimidine-2,4-dione] showed an EC50 of 1 to 10 µM.
For the molecule `COc1nc(N)nc2c1ncn2[C@@H]1O[C@@H]2COP(=O)(SCOC(=O)C(C)(C)C)O[C@H]2[C@@]1(C)O` (some centres unmarked) [Compound 12a, 2′-C,O^6-Dimethylguanosine 3′,5′-cyclic O-pivaloyloxymethyl phosphorothioate], the EC50 (HCV replicon cells (Huh-7), 72 hours incubation, LUC signal, read-out: EC50) is less than 1 µM.
